# In PubChem BioAssay AID504944 (Broad Institute, 2011):
# Activity calls are given as the source filed them. The rule behind the calls is not given here.
# Tested on: not listed separately
# Assay: toxicity to human HeLa cells – cell-based, 48 h, plate reader, cherry-picks, set 2, cytotoxicity control, dose response (AID 504944)
# Details: HeLa cytotoxicity, plate reader, 48 h; at 13.5 µM (top of the series)
row,Structure (SMILES),"activity change, negative = toxicity"
1,COc1ccc(C2=C(C=O)Cc3ccccc3O2)cc1,0.173% (inactive)

# Same assay, conditions: HeLa cytotoxicity, plate reader, 48 h; at 38 µM (top of the series)
row,Structure (SMILES),"activity change, negative = toxicity"
1,N#CCn1c(C2CCCCC2)nc2ccccc2c1=O,0.099% (inactive)
2,OC(c1cccc(Cl)c1)c1nccc2ccccc12 (centres undefined),-10.8% (inactive)
3,N#CC(c1ccc(Cl)nn1)c1c(F)cccc1Cl (centres undefined),-4.99% (inactive)
4,N#Cc1cc(-c2ccccc2)cnc1Cl,-4.08% (inactive)
5,Clc1cccc(CNCCCSc2ncccn2)c1,-1.31% (inactive)
6,O=C1N[C@@H](Cc2ccccc2)[C@@H](c2ccco2)O1,-3.87% (inactive)
7,O=[N+]([O-])c1ccc(N2CCCCC2)nc1,-0.44% (inactive)
8,O=[N+]([O-])c1ccc(N2CCCCC2)cc1,-9.13% (inactive)
9,O=C(NC1CCS(=O)(=O)C1)c1cccc(Br)c1 (centres undefined),-1.62% (inactive)
10,CCCCCC1CC(COc2ccccc2)OC1=O (centres undefined),-3.8% (inactive)
11,O=C(NC1CCCCCCC1)c1cccc(Cl)c1,-22.5% (inactive)
12,CCOC(=O)CC(C#N)c1cn(C)c2ccccc12 (centres undefined),-3.91% (inactive)
13,COC(=O)c1cc(-c2ccc(OC)cc2)on1,4.16% (inactive)
14,Clc1ccc2scc(CN3CCCCC3)c2c1,-2.59% (inactive)
15,O=C1C2C3C=CC(C4CC34)C2C(=O)N1Cc1ccco1 (centres undefined),-2.48% (inactive)
16,Cc1cc(NC(=O)c2cc([N+](=O)[O-])cc([N+](=O)[O-])c2C)no1,-10.2% (inactive)
17,C=CCOC(=O)c1ccc(-n2cnc(C)n2)nc1,-2.17% (inactive)
18,Cc1cc(C)nc(N(C#N)Cc2cccc([N+](=O)[O-])c2)n1,-8.51% (inactive)
19,CCOC(=O)CCCn1ncn2c(cc3occc32)c1=O,-0.83% (inactive)
20,O=C(NC1CCCC1)c1cc(Cl)ccc1[N+](=O)[O-],-2.55% (inactive)
21,COC(=O)c1ccc(OC(=O)c2ccco2)cc1,-11.8% (inactive)
22,CCOC1=CC(=O)OC(c2ccccc2)C1 (centres undefined),-12.2% (inactive)

row,Structure (SMILES),"activity change, negative = toxicity"
1,O=[N+]([O-])c1ccc(N2CCCC2)nc1,-3.24% (inactive)
2,CCOC(=O)N1CCN(c2ccc(Cl)cc2)CC1,5.84% (inactive)
3,N#CC(c1cccc(Cl)c1)c1ncc(C(F)(F)F)cc1Cl (centres undefined),-12.5% (inactive)
4,CSc1nnc(-c2ccc([N+](=O)[O-])cc2)o1,-10.7% (inactive)
5,O=CN(c1ccccc1)c1ccc2ccccc2c1,-5.5% (inactive)
6,CCOc1ccc(CNC2CCCc3ccccc32)cc1 (centres undefined),-11.3% (inactive)
7,CC(C)CCNC(=O)c1cccc(Cl)c1,-10.7% (inactive)
8,Cc1ccc(S(=O)c2ccc(C)cc2)cc1,-9.53% (inactive)
9,Nc1ccc(OCc2ccccc2)cc1[N+](=O)[O-],-5.72% (inactive)
10,COC(=O)c1cc(-c2ccc(Br)cc2)on1,-9.19% (inactive)
11,Cc1cc(NC(=O)Nc2ccccc2[N+](=O)[O-])no1,-12.9% (inactive)
12,C#CCSc1ncc(-c2ccccc2)cn1,-4.45% (inactive)
13,N#CC(c1ccc(Cl)cc1)c1ncc(C(F)(F)F)cc1Cl (centres undefined),-15% (inactive)
14,CC(C)N=C(NC#N)SCc1ccccc1F,0.214% (inactive)
15,O=C1C2C(C(=O)N1Cc1ccco1)C1C=CC2C12CC2 (centres undefined),-4.39% (inactive)
16,O=C1C=C(c2cccc(Cl)c2)C[C@@H](c2ccc(F)cc2)C1,-19.4% (inactive)
17,Clc1ccc2scc(CN3CCCC3)c2c1,-10.3% (inactive)
18,Cc1cc(S(=O)(=O)NCC2CC2)c(Cl)cc1Cl,-4.01% (inactive)
19,N#CC(c1ccc(Cl)cc1)c1cccc(Cl)n1 (centres undefined),-6.14% (inactive)
20,CCOc1ccc(-n2cccc2C=O)cc1,-8.05% (inactive)
21,CCCNS(=O)(=O)c1ccc(OC)c(Cl)c1Cl,-2.35% (inactive)
22,Cc1ccc(C)c(S(=O)(=O)NC2CCSC2=O)c1 (centres undefined),-5.62% (inactive)

row,Structure (SMILES),"activity change, negative = toxicity"
1,O=C(NCC1CC1)c1cc([N+](=O)[O-])cc([N+](=O)[O-])c1,5.69% (inactive)
2,COc1ccc(/C(C#N)=C/c2cccnc2)cc1,-8.3% (inactive)
3,CCOC(=O)c1ccc(-c2ccc(CO)o2)cc1,-14.8% (inactive)
4,CCC(C)NS(=O)(=O)c1ccc(OC)c(Cl)c1Cl (centres undefined),-10.1% (inactive)
5,Cc1ccc(C(C#N)c2ccc(Cl)nn2)cc1 (centres undefined),-10.6% (inactive)
6,O=[N+]([O-])c1ccc(-c2cccnc2)cc1,-9.26% (inactive)
7,N#CC(c1ccc(Cl)nn1)c1ccc(Cl)cc1Cl (centres undefined),-7.39% (inactive)
8,N#CC1C(C#N)C2CCC1C1C2N1c1ccccc1 (centres undefined),-9.52% (inactive)
9,Cc1cccc(NC(=O)Nc2cc(C)on2)c1,-3.2% (inactive)
10,COc1ccc(CNCc2cccc(Cl)c2)cc1,3.92% (inactive)
11,COc1ccc(N2CCN(C(=O)c3ccc(Br)o3)CC2)cc1,-5.84% (inactive)
12,Cc1ccc2scc(CN3CCCC3)c2c1,-3.48% (inactive)
13,Cc1cccc(C(C#N)c2ccc(Cl)nn2)c1 (centres undefined),-0.066% (inactive)
14,COc1ccc(C(C#N)c2ccc(Cl)nn2)cc1 (centres undefined),8.42% (inactive)
15,O=C1C=C(c2cc(F)ccc2F)C[C@@H](c2ccc(F)cc2)C1,-9.01% (inactive)
16,COc1ccccc1C(C#N)c1cccc(Cl)n1 (centres undefined),-0.092% (inactive)
17,O=C(NC1CCCC1)c1cccc(Cl)c1,2.48% (inactive)
18,N#CC(c1ccc(Cl)cc1)c1ccc(Cl)nn1 (centres undefined),-11% (inactive)
19,COc1ccc(/C=C/C(=O)c2ccoc2)cc1,-17.6% (inactive)
20,CCOC(=O)c1ccc(-c2ccc(C=O)o2)cc1,0.584% (inactive)
21,CCNC(=O)COc1ccc2ccccc2c1,-6.43% (inactive)
22,O=S1(=O)CCOC[C@H](c2ccccc2)N1Cc1cccc(Cl)c1,-9.16% (inactive)

row,Structure (SMILES),"activity change, negative = toxicity"
1,Cc1ccc(S(=O)(=O)NCCC(C)C)cc1[N+](=O)[O-],-2.87% (inactive)
2,N#CC(c1ccc(Cl)nn1)c1ccccc1Cl (centres undefined),-3.51% (inactive)
3,N#CN(Cc1ccccc1)Cc1ccccc1,2.47% (inactive)
4,COc1ccc(N=C(C)C2=C(O)CSC2=O)cc1,5.59% (inactive)
5,Cn1cccc1C(C#N)c1cccc(F)c1C#N (centres undefined),-11.4% (inactive)
6,COC(=O)c1ccc(OC(=O)c2cccs2)cc1,-10.9% (inactive)
7,O=C(c1cccc([N+](=O)[O-])c1)N1CC2C3C=CC(C3)C2C1 (centres undefined),-2.29% (inactive)
8,COC(=O)c1ccc(NC(=S)N2CCCC2)cc1,0.525% (inactive)
9,N#CC(c1ccccc1)c1cccc(Cl)n1 (centres undefined),1.47% (inactive)
10,Cn1cccc1C(=O)OCc1cc(-c2ccco2)on1,0.43% (inactive)
11,CCOC(=O)c1cc2c(s1)-c1c(C)cccc1OC2,-10.8% (inactive)
12,Cc1cc(NC(=O)c2c(F)c(F)c(F)c(F)c2F)no1,-10.1% (inactive)
13,Cc1cc(C)nc(N(C#N)Cc2ccccc2)n1,2.63% (inactive)
14,CC(C)(C)NC(=O)c1cc(Cl)ccc1[N+](=O)[O-],-2.21% (inactive)
15,N#CC(Sc1ccccn1)c1ccc(Cl)cc1 (centres undefined),-11% (inactive)
16,CSC1=N/C(=C\C=C\c2cccs2)C(=O)S1,-8.63% (inactive)
17,O=CNC1(c2ccccc2)CCCCC1,-10.5% (inactive)
18,Cn1cccc1C(C#N)c1ccccc1C#N (centres undefined),-10.8% (inactive)
19,CCOC(=O)c1ccc(N2Cc3ccccc3C2=N)cc1,-10.6% (inactive)

# Tested on: HeLa cytotoxicity, plate reader, 48 h
# Assay: as above
# Details: not given
row,Structure (SMILES),AC50
1,O=C(Nc1ncc([N+](=O)[O-])s1)c1cccc([N+](=O)[O-])c1,14.3 µM
2,Cc1ccc2nc(-c3ccc4c(c3)OCCO4)cn2c1,22.3 µM
3,N#C/C(=C/c1ccco1)c1nc2ccccc2s1,24.4 µM
4,CO/N=C/c1cn(-c2ccc(Cl)cc2)nn1,22.3 µM
5,Cc1cc(NC(=O)c2cc([N+](=O)[O-])ccc2Cl)no1,29.1 µM
6,O=CC1=C(c2ccccc2)Oc2ccccc2O1,20.6 µM
7,CCOC(=O)/C=C(\C)Sc1cc(=O)oc2ccccc12,23.9 µM
8,COC(=O)c1ccc(/C=C(\C#N)c2ccccn2)cc1,29 µM
